Data taken from ChEMBL document CHEMBL3352719 (Bioorg Med Chem, 2014).

Tests used:
cells = conditions: Influenza A virus, MDCK, 48 h
[1] = Cytotoxicity against human 293T cells after 48 hrs by CellTiter96 assay; assay type: cell-based, HEK-293T
[2] = Cytotoxicity against MDCK cells after 48 hrs by CellTiter96 assay; assay type: cell-based, Canis lupus familiaris; conditions: dog

SMILES: CCC(CC)O[C@@H]1C=C(C(=O)NO)C[C@H](N)[C@H]1NC(C)=O
- EC50 (cells): 359 nM

SMILES: CCC(CC)O[C@@H]1C=C(C(=O)NOC)C[C@H](N)[C@H]1NC(C)=O
- EC50 (cells): 127 nM

SMILES: CCC(CC)O[C@@H]1C=C(C(=O)NOCc2ccccc2)C[C@H](N)[C@H]1NC(C)=O
- EC50 (cells): 72.4 nM

SMILES: CCC(CC)O[C@@H]1C=C(C(=O)NOCCCc2cc3ccccc3[nH]2)C[C@H](N)[C@H]1NC(C)=O
- EC50 (cells): 60.1 nM

SMILES: CCC(CC)O[C@@H]1C=C(C(=O)NOC)C[C@H](NC(=N)N)[C@H]1NC(C)=O
- EC50 (cells): 71.7 nM
- CC50 at 48 h [1]: > 100000 nM
- CC50 at 48 h [2]: > 100000 nM

SMILES: CCC(CC)O[C@@H]1C=C(C(=O)NOCc2ccccc2)C[C@H](NC(=N)N)[C@H]1NC(C)=O
- EC50 (cells): 23.8 nM

SMILES: CCC(CC)O[C@@H]1C=C(C(=O)NOCCCc2cc3ccccc3[nH]2)C[C@H](NC(=N)N)[C@H]1NC(C)=O
- EC50 (cells): 90.7 nM
- CC50 at 48 h [1]: > 100000 nM
- CC50 at 48 h [2]: > 100000 nM

SMILES: CCC(CC)O[C@@H]1C=C(C(=O)NS(C)(=O)=O)C[C@H](N)[C@H]1NC(C)=O
- EC50 (cells): 401 nM

SMILES: CCC(CC)O[C@@H]1C=C(C(=O)NS(=O)(=O)C(F)(F)F)C[C@H](N)[C@H]1NC(C)=O
- EC50 (cells): 2220 nM

SMILES: CCCCS(=O)(=O)NC(=O)C1=C[C@@H](OC(CC)CC)[C@H](NC(C)=O)[C@@H](N)C1
- EC50 (cells): 1980 nM

SMILES: CCC(CC)O[C@@H]1C=C(C(=O)NS(=O)(=O)c2ccccc2)C[C@H](N)[C@H]1NC(C)=O
- EC50 (cells): 7490 nM

SMILES: CCC(CC)O[C@@H]1C=C(C(=O)NS(C)(=O)=O)C[C@H](NC(=N)N)[C@H]1NC(C)=O
- EC50 (cells): 59.1 nM
- CC50 at 48 h [1]: > 100000 nM
- CC50 at 48 h [2]: > 100000 nM

SMILES: CCC(CC)O[C@@H]1C=C(C(=O)NS(=O)(=O)C(F)(F)F)C[C@H](NC(=N)N)[C@H]1NC(C)=O
- EC50 (cells): 484 nM

SMILES: CCCCS(=O)(=O)NC(=O)C1=C[C@@H](OC(CC)CC)[C@H](NC(C)=O)[C@@H](NC(=N)N)C1
- EC50 (cells): 261 nM

SMILES: CCC(CC)O[C@@H]1C=C(C(=O)NS(=O)(=O)c2ccccc2)C[C@H](NC(=N)N)[C@H]1NC(C)=O
- EC50 (cells): 593 nM

SMILES: CCC(CC)O[C@@H]1C=C(C(=O)O)C[C@H](N)[C@H]1NC(C)=O [OSELTAMIVIR CARBOXYLATE]
- EC50 (cells): 28.2 nM
